{
  "source": "ChEMBL document CHEMBL5528040",
  "about": "“Design and Synthesis of Novel 3-Nitro-1H-1,2,4-triazole-1,2,3-triazole-1,4-disubstituted Analogs as Promising Antitrypanosomatid Agents: Evaluation of In Vitro Activity against Chagas Disease and Leishmaniasis” (J Med Chem, 2024)",
  "key": {"[1]": {"experiment": "Mutagenicity in Salmonella typhimurium TA100 assessed as mutagenic index ratio at 50 ug per plate incubated for 90 mins by AMES test", "assay_type": "toxicity, Salmonella enterica subsp. enterica serovar Typhimurium", "conditions": "in vivo, 1.5 h, dose 50 µg"}, "[2]": {"experiment": "Mutagenicity in Salmonella typhimurium TA102 assessed as number of revertant colonies at 1500 ug per plate incubated for 90 mins by AMES test (reference value: 110.67 +/- 20.15)", "assay_type": "toxicity, Salmonella enterica subsp. enterica serovar Typhimurium", "conditions": "in vivo, 1.5 h, dose 1500 µg"}, "[3]": {"experiment": "Mutagenicity in Salmonella typhimurium TA102 assessed as mutagenic index ratio at 150 ug per plate incubated for 90 mins by AMES test", "assay_type": "toxicity, Salmonella enterica subsp. enterica serovar Typhimurium", "conditions": "in vivo, 1.5 h, dose 150 µg"}, "[4]": {"experiment": "Mutagenicity in Salmonella typhimurium TA102 assessed as number of revertant colonies at 50 ug per plate incubated for 90 mins by AMES test (reference value: 110.67 +/- 20.15)", "assay_type": "toxicity, Salmonella enterica subsp. enterica serovar Typhimurium", "conditions": "in vivo, 1.5 h, dose 50 µg"}, "[5]": {"experiment": "Mutagenicity in Salmonella typhimurium TA100 assessed as mutagenic index ratio at 5000 ug per plate incubated for 90 mins in presence of S9 fraction by AMES test", "assay_type": "toxicity, subcellular, Salmonella enterica subsp. enterica serovar Typhimurium", "conditions": "s9, 1.5 h, dose 5000 µg"}, "[6]": {"experiment": "Mutagenicity in Salmonella typhimurium TA100 assessed as number of revertant colonies at 1500 ug per plate incubated for 90 mins in presence of S9 fraction by AMES test (reference value: 122.67 +/- 5.03)", "assay_type": "toxicity, subcellular, Salmonella enterica subsp. enterica serovar Typhimurium", "conditions": "s9, 1.5 h, dose 1500 µg"}, "[7]": {"experiment": "Mutagenicity in Salmonella typhimurium TA102 assessed as mutagenic index ratio at 500 ug per plate incubated for 90 mins by AMES test", "assay_type": "toxicity, Salmonella enterica subsp. enterica serovar Typhimurium", "conditions": "in vivo, 1.5 h, dose 500 µg"}, "[8]": {"experiment": "Mutagenicity in Salmonella typhimurium TA98 assessed as mutagenic index ratio at 5000 ug per plate incubated for 90 mins by AMES test", "assay_type": "toxicity, Salmonella enterica subsp. enterica serovar Typhimurium", "conditions": "in vivo, 1.5 h, dose 5000 µg"}, "[9]": {"experiment": "Selectivity index, ratio of CC50 for cytotoxicity against monkey LLC-MK2 cells to IC50 for antitrypanosomal activity against Trypanosoma cruzi Tulahuen amastigotes transfected with Escherichia coli beta-galactosidase LacZ gene infected in monkey LLC-MK2 cells", "assay_type": "toxicity, cell-based", "conditions": "read-out: Ratio CC50/IC50"}, "[10]": {"experiment": "Mutagenicity in Salmonella typhimurium TA98 assessed as mutagenic index ratio at 50 ug per plate incubated for 90 mins in presence of S9 fraction by AMES test", "assay_type": "toxicity, subcellular, Salmonella enterica subsp. enterica serovar Typhimurium", "conditions": "s9, 1.5 h, dose 50 µg"}, "[11]": {"experiment": "Mutagenicity in Salmonella typhimurium TA98 assessed as number of revertant colonies at 500 ug per plate incubated for 90 mins by AMES test (reference value: 22.67 +/- 0.58)", "assay_type": "toxicity, Salmonella enterica subsp. enterica serovar Typhimurium", "conditions": "in vivo, 1.5 h, dose 500 µg"}, "[12]": {"experiment": "Mutagenicity in Salmonella typhimurium TA102 assessed as mutagenic index ratio at 1500 ug per plate incubated for 90 mins by AMES test", "assay_type": "toxicity, Salmonella enterica subsp. enterica serovar Typhimurium", "conditions": "in vivo, 1.5 h, dose 1500 µg"}, "[13]": {"experiment": "Mutagenicity in Salmonella typhimurium TA102 assessed as mutagenic index ratio at 50 ug per plate incubated for 90 mins by AMES test", "assay_type": "toxicity, Salmonella enterica subsp. enterica serovar Typhimurium", "conditions": "in vivo, 1.5 h, dose 50 µg"}, "[14]": {"experiment": "Mutagenicity in Salmonella typhimurium TA98 assessed as number of revertant colonies at 50 ug per plate incubated for 90 mins in presence of S9 fraction by AMES test (reference value: 21.00 +/- 1.00)", "assay_type": "toxicity, subcellular, Salmonella enterica subsp. enterica serovar Typhimurium", "conditions": "s9, 1.5 h, dose 50 µg"}, "[15]": {"experiment": "Mutagenicity in Salmonella typhimurium TA98 assessed as mutagenic index ratio at 5000 ug per plate incubated for 90 mins in presence of S9 fraction by AMES test", "assay_type": "toxicity, subcellular, Salmonella enterica subsp. enterica serovar Typhimurium", "conditions": "s9, 1.5 h, dose 5000 µg"}, "[16]": {"experiment": "Mutagenicity in Salmonella typhimurium TA98 assessed as mutagenic index ratio at 1500 ug per plate incubated for 90 mins in presence of S9 fraction by AMES test", "assay_type": "toxicity, subcellular, Salmonella enterica subsp. enterica serovar Typhimurium", "conditions": "s9, 1.5 h, dose 1500 µg"}, "[17]": {"experiment": "Mutagenicity in Salmonella typhimurium TA100 assessed as number of revertant colonies at 500 ug per plate incubated for 90 mins by AMES test (reference value: 88.00 +/- 2.65)", "assay_type": "toxicity, Salmonella enterica subsp. enterica serovar Typhimurium", "conditions": "in vivo, 1.5 h, dose 500 µg"}, "[18]": {"experiment": "Mutagenicity in Salmonella typhimurium TA98 assessed as mutagenic index ratio at 150 ug per plate incubated for 90 mins in presence of S9 fraction by AMES test", "assay_type": "toxicity, subcellular, Salmonella enterica subsp. enterica serovar Typhimurium", "conditions": "s9, 1.5 h, dose 150 µg"}, "[19]": {"experiment": "Mutagenicity in Salmonella typhimurium TA102 assessed as number of revertant colonies at 1500 ug per plate incubated for 90 mins in presence of S9 fraction by AMES test (reference value: 130.00 +/- 6.93)", "assay_type": "toxicity, subcellular, Salmonella enterica subsp. enterica serovar Typhimurium", "conditions": "s9, 1.5 h, dose 1500 µg"}, "[20]": {"experiment": "Mutagenicity in Salmonella typhimurium TA100 assessed as number of revertant colonies at 50 ug per plate incubated for 90 mins in presence of S9 fraction by AMES test (reference value: 122.67 +/- 5.03)", "assay_type": "toxicity, subcellular, Salmonella enterica subsp. enterica serovar Typhimurium", "conditions": "s9, 1.5 h, dose 50 µg"}, "[21]": {"experiment": "Mutagenicity in Salmonella typhimurium TA102 assessed as number of revertant colonies at 5000 ug per plate incubated for 90 mins by AMES test (reference value: 110.67 +/- 20.15)", "assay_type": "toxicity, Salmonella enterica subsp. enterica serovar Typhimurium", "conditions": "in vivo, 1.5 h, dose 5000 µg"}, "Trypanosoma cruzi [22]": {"system": "Trypanosoma cruzi", "experiment": "Potency index, ratio of Benznidazole IC50 to test compound IC50 for antitrypanosomal activity against Trypanosoma cruzi Tulahuen amastigotes transfected with Escherichia coli beta-galactosidase LacZ gene infected in monkey LLC-MK2 cells assessed as inhibition of amastigotes growth incubated for 72 hrs by absorbance based microplate reader analysis", "assay_type": "functional"}, "[23]": {"experiment": "Mutagenicity in Salmonella typhimurium TA100 assessed as mutagenic index ratio at 1500 ug per plate incubated for 90 mins by AMES test", "assay_type": "toxicity, Salmonella enterica subsp. enterica serovar Typhimurium", "conditions": "in vivo, 1.5 h, dose 1500 µg"}, "[24]": {"experiment": "Mutagenicity in Salmonella typhimurium TA100 assessed as number of revertant colonies at 500 ug per plate incubated for 90 mins in presence of S9 fraction by AMES test (reference value: 122.67 +/- 5.03)", "assay_type": "toxicity, subcellular, Salmonella enterica subsp. enterica serovar Typhimurium", "conditions": "s9, 1.5 h, dose 500 µg"}, "[25]": {"experiment": "Mutagenicity in Salmonella typhimurium TA100 assessed as mutagenic index ratio at 50 ug per plate incubated for 90 mins in presence of S9 fraction by AMES test", "assay_type": "toxicity, subcellular, Salmonella enterica subsp. enterica serovar Typhimurium", "conditions": "s9, 1.5 h, dose 50 µg"}, "[26]": {"experiment": "Mutagenicity in Salmonella typhimurium TA102 assessed as number of revertant colonies at 500 ug per plate incubated for 90 mins by AMES test (reference value: 110.67 +/- 20.15)", "assay_type": "toxicity, Salmonella enterica subsp. enterica serovar Typhimurium", "conditions": "in vivo, 1.5 h, dose 500 µg"}, "[27]": {"experiment": "Mutagenicity in Salmonella typhimurium TA102 assessed as mutagenic index ratio at 5000 ug per plate incubated for 90 mins by AMES test", "assay_type": "toxicity, Salmonella enterica subsp. enterica serovar Typhimurium", "conditions": "in vivo, 1.5 h, dose 5000 µg"}, "[28]": {"experiment": "Mutagenicity in Salmonella typhimurium TA98 assessed as number of revertant colonies at 500 ug per plate incubated for 90 mins in presence of S9 fraction by AMES test (reference value: 21.00 +/- 1.00)", "assay_type": "toxicity, subcellular, Salmonella enterica subsp. enterica serovar Typhimurium", "conditions": "s9, 1.5 h, dose 500 µg"}, "[29]": {"experiment": "Mutagenicity in Salmonella typhimurium TA102 assessed as mutagenic index ratio at 5000 ug per plate incubated for 90 mins in presence of S9 fraction by AMES test", "assay_type": "toxicity, subcellular, Salmonella enterica subsp. enterica serovar Typhimurium", "conditions": "s9, 1.5 h, dose 5000 µg"}, "[30]": {"experiment": "Mutagenicity in Salmonella typhimurium TA98 assessed as number of revertant colonies at 5000 ug per plate incubated for 90 mins in presence of S9 fraction by AMES test (reference value: 21.00 +/- 1.00)", "assay_type": "toxicity, subcellular, Salmonella enterica subsp. enterica serovar Typhimurium", "conditions": "s9, 1.5 h, dose 5000 µg"}, "[31]": {"experiment": "Mutagenicity in Salmonella typhimurium TA98 assessed as mutagenic index ratio at 50 ug per plate incubated for 90 mins by AMES test", "assay_type": "toxicity, Salmonella enterica subsp. enterica serovar Typhimurium", "conditions": "in vivo, 1.5 h, dose 50 µg"}, "Trypanosoma cruzi [32]": {"system": "Trypanosoma cruzi", "experiment": "Antitrypanosomal activity against Trypanosoma cruzi Tulahuen amastigotes transfected with Escherichia coli beta-galactosidase LacZ gene infected in monkey LLC-MK2 cells assessed as inhibition of amastigotes growth incubated for 72 hrs by absorbance based microplate reader analysis", "assay_type": "functional, organism-based", "conditions": "LLC-MK2, 72 h"}, "[33]": {"experiment": "Mutagenicity in Salmonella typhimurium TA100 assessed as number of revertant colonies at 1500 ug per plate incubated for 90 mins by AMES test (reference value: 88.00 +/- 2.65)", "assay_type": "toxicity, Salmonella enterica subsp. enterica serovar Typhimurium", "conditions": "in vivo, 1.5 h, dose 1500 µg"}},
  "data": [
    {"compound": "O=[N+]([O-])c1ncn(Cc2cn(-c3ccc(OC(F)(F)F)cc3)nn2)n1", "values": [
      {"measurement": "Ratio", "setting": "[1]", "value": 1.1},
      {"measurement": "Activity", "setting": "[2]", "value": 141},
      {"measurement": "Ratio", "setting": "[3]", "value": 1.4},
      {"measurement": "Activity", "setting": "[4]", "value": 215.33},
      {"measurement": "Ratio", "setting": "[5]", "value": 0.3},
      {"measurement": "Activity", "setting": "[6]", "value": 98.33},
      {"measurement": "Ratio", "setting": "[7]", "value": 1.4},
      {"measurement": "Ratio", "setting": "[8]", "value": 1.1},
      {"measurement": "selectivity ratio", "setting": "[9]", "value": "> 556"},
      {"measurement": "Ratio", "setting": "[10]", "value": 1},
      {"measurement": "Activity", "setting": "[11]", "value": 21.33},
      {"measurement": "Ratio", "setting": "[12]", "value": 1.2},
      {"measurement": "Ratio", "setting": "[13]", "value": 1.9},
      {"measurement": "Activity", "setting": "[14]", "value": 22.67},
      {"measurement": "Ratio", "setting": "[15]", "value": 0.7},
      {"measurement": "Ratio", "setting": "[16]", "value": 1},
      {"measurement": "Activity", "setting": "[17]", "value": 83},
      {"measurement": "Ratio", "setting": "[18]", "value": 1.1},
      {"measurement": "Activity", "setting": "[19]", "value": 178.67},
      {"measurement": "Activity", "setting": "[20]", "value": 121.33},
      {"measurement": "Activity", "setting": "[21]", "value": 143.67},
      {"measurement": "Ratio IC50", "setting": "Trypanosoma cruzi [22]", "value": 68},
      {"measurement": "Ratio", "setting": "[23]", "value": 0.9},
      {"measurement": "Activity", "setting": "[24]", "value": 129},
      {"measurement": "Ratio", "setting": "[25]", "value": 0.9},
      {"measurement": "Activity", "setting": "[26]", "value": 159.67},
      {"measurement": "Ratio", "setting": "[27]", "value": 1.2},
      {"measurement": "Activity", "setting": "[28]", "value": 23.33},
      {"measurement": "Ratio", "setting": "[29]", "value": 1},
      {"measurement": "Activity", "setting": "[30]", "value": 15.33},
      {"measurement": "Ratio", "setting": "[31]", "value": 0.8},
      {"measurement": "IC50", "setting": "Trypanosoma cruzi [32]", "value": 0.09, "unit": "µM"},
      {"measurement": "Activity", "setting": "[33]", "value": 81}
    ]}
  ]
}
